Biological target: T1, AXL (Homo sapiens, UniProt P30530)
T1 sequence (P30530 26-894): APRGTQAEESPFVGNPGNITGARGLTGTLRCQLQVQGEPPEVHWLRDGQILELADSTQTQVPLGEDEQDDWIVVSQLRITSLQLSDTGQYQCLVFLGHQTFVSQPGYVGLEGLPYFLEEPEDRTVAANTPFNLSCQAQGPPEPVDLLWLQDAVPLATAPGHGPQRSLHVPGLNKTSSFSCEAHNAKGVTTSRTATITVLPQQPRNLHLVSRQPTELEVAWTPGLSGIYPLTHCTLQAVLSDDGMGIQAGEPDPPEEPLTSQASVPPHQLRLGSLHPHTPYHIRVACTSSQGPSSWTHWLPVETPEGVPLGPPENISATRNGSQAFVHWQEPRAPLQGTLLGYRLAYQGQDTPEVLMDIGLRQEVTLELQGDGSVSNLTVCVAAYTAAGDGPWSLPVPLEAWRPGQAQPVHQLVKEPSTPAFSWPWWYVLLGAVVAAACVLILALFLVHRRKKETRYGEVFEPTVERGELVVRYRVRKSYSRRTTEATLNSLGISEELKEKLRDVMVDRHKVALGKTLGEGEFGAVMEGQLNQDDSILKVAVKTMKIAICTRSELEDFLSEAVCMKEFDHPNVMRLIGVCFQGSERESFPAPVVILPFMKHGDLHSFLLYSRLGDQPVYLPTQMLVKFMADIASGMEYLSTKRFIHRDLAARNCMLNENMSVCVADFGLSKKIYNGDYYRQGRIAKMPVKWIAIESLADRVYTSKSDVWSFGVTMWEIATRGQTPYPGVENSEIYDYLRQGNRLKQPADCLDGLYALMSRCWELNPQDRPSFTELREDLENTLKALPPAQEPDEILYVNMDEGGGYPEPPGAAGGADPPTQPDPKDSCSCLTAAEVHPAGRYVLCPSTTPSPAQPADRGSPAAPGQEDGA
Experiment: Gas6 ligand-induced tyrosine phosphorylation of human AXL expressed in HEK293T cells
Assay type: cell-based
Parameters: expressed in transfected cells; host or cells: HEK293T
Conditions: read-out: EC50, inhibition of Gas6 ligand-induced tyrosine phosphorylation of AXL

EC50: 100 nM
SMILES: Cc1c[nH]c2nc(Nc3ccc(N4CCN(C)CC4)c(F)c3)nc(-c3cccc(CC#N)c3)c12 [SGI-7079]

Reference: patent US20140155397A1, “EMT SIGNATURES AND PREDICTIVE MARKERS AND METHOD OF USING THE SAME” (Board of Regents, priority 2011, published 2014)
